Measured values: the NIST ThermoML archive (doi:10.1021/je030147g)

Tests used:
[1] = refractive index (Na D-line) (dimensionless); xn = mol fraction of the nth substance listed; details: 101.33 kPa, Liquid
[2] = xn = mol fraction of the nth substance listed; details: 101.33 kPa, Liquid

CCCCN(CCCC)CCCC [tributylamine] + ClC(Cl)=C(Cl)Cl
Details | mass density, [2] [kg/m3] | refractive index, [1] | speed of sound, [2] [m/s] | viscosity, [2] [mPa·s]
298.15 K, x1 = 0.104 | 1433.8 | 1.4872 | 1052 | 0.917
298.15 K, x1 = 0.2059 | 1295.5 | 1.4748 | 1073 | 0.958
298.15 K, x1 = 0.3068 | 1185.4 | 1.4659 | 1094 | 0.996
298.15 K, x1 = 0.4073 | 1095 | 1.4566 | 1116 | 1.033
298.15 K, x1 = 0.4967 | 1026.9 | 1.4506 | 1136 | 1.065
298.15 K, x1 = 0.6069 | 955.4 | 1.4437 | 1162 | 1.104
298.15 K, x1 = 0.699 | 904.2 | 1.4396 | 1184 | 1.136
298.15 K, x1 = 0.8018 | 854.3 | 1.435 | 1209 | 1.172
298.15 K, x1 = 0.9007 | 812 | 1.4316 | 1235 | 1.206
298.15 K, x1 = 1 | 773.9 | 1.4276 | 1262 | 1.239
303.15 K, x1 = 0.104 | 1425.9 | 1.4842 | – | 0.869
303.15 K, x1 = 0.2059 | 1288.1 | 1.4721 | – | 0.902
303.15 K, x1 = 0.3068 | 1181.4 | – | – | 0.93
303.15 K, x1 = 0.4073 | 1089.1 | 1.4539 | – | 0.96
303.15 K, x1 = 0.4967 | 1021.5 | 1.4479 | – | 0.99
303.15 K, x1 = 0.6069 | 949.9 | 1.4415 | – | 1.018
303.15 K, x1 = 0.699 | 899.4 | 1.4367 | – | 1.053
303.15 K, x1 = 0.8018 | 849.4 | 1.4325 | – | 1.081
303.15 K, x1 = 0.9007 | 808 | 1.4289 | – | 1.104
303.15 K, x1 = 1 | 769.2 | 1.4255 | – | 1.124
308.15 K, x1 = 0.104 | 1418.2 | 1.481 | – | 0.818
308.15 K, x1 = 0.2059 | 1281.3 | 1.4692 | – | 0.844
308.15 K, x1 = 0.3068 | 1172.5 | 1.4594 | – | 0.869
308.15 K, x1 = 0.4073 | 1083.2 | 1.451 | – | 0.893
308.15 K, x1 = 0.4967 | 1015.9 | 1.445 | – | 0.914
308.15 K, x1 = 0.6069 | 945.2 | 1.4392 | – | 0.94
308.15 K, x1 = 0.699 | 894.7 | 1.434 | – | 0.961
308.15 K, x1 = 0.8018 | 845.3 | 1.4298 | – | 0.984
308.15 K, x1 = 0.9007 | 803.4 | 1.4263 | – | 1.006
308.15 K, x1 = 1 | 765.7 | 1.4228 | – | 1.028
